How the values were obtained:
[1] = test system: Ehrlich ascites carcinoma; experiment: Way of activity: mitosis index in Ehrlich ascites carcinoma; assay type: in vivo, Mice; conditions: in 24 hours; i.p. on 6th day, equitoxic doses
Experimental: (§1) Mice, being infected with Ehrlich ascites carcinoma, were treated intraperitoneally on the 6th day after transplantation with equitoxic doses of compounds 1, 2 and 6. The duration of the activity was investigated by determining the total cell number and the way of action by determining the mitosis index* and the thymidine index**. It could be shown that both compounds 1 and 2 inhibit the increase of the total cell number for 35 days, while a similar inhibition of the reference compound 6 lasts only for 17 days. As far as the quality of the activity is concerned, compounds 1 and 2 decrease the mitosis-index and the thymidine index in 24 hours by 90%, while in the case of compound 6 the decrease amounts only to 45 to 50%, and the maximum is reached on the 4th day.
*mitosis index=number of dividing cells/1000 tumour cells

[2] = test system: L-120 leukemia; experiment: Antitumour activity, L-1210 leukemia (Table 2); assay type: in vivo, BDF1 mice; conditions: from the 2nd day; for Recovery (90 day survival): animals recovered/treated
Experimental: (§2) The leukemia and ascites type tumours were transplanted intraperitoneally, using an amount of 10^5 -10^7 cells, while in the case of solid tumours, small pieces of tumours were implanted subcutaneously with a trocar. Treatment:
(§3) Mice were treated with a volume of 0.1 ml./10 g. body-weight of a suspension of the tested compounds in water containing 2% of Tween-80, while rats were treated with a volume of 0.1 ml./100 g. bodyweight of a suspension of the tested compounds in water containing 5% of Tween-80.
(§4) The ascites and leukemia-type tumours were evaluated with the exception of the Rausher leukemia by the increase of the life span and by complete recovery. [formula]
(§5) Recovery=90 days of tumour free life after transplantation.

[3] = test system: S-180 s.c. sarcoma; experiment: Antitumour activity, S-180 s.c. sarcoma, tumour weight (Table 3); assay type: in vivo, CFLP mice; conditions: from the 2nd day
Experimental: as §2, §3
(§6) In the case of solid tumours (Harding-Passey melanoma, S-180 and Yoshida sarcoma) the tumours were removed on the 8 to 14th day, and the inhibition was calculated by the weight of the tumours, using the following formula: [formula]

[4] = test system: Yoshida s.c. sarcoma; experiment: Antitumour activity, Yoshida s.c. sarcoma, tumour weight (Table 3); assay type: in vivo, CFY rats; conditions: from the 2nd day
Experimental: as §2, §3, §6

[5] = test system: Harding-Passey melanoma; experiment: Antitumour activity, Harding-Passey melanoma, tumour weight (Table 3); assay type: in vivo, CFLP mice; conditions: from the 4th day after transplantation
Experimental: as §2, §3, §6

[6] = test system: Ehrlich ascites carcinoma; experiment: Duration of activity: total cell number in Ehrlich ascites carcinoma; assay type: in vivo, Mice; conditions: i.p. on the 6th day after transplantation, equitoxic doses
Experimental: as §1

[7] = test system: Developed Yoshida s.c. sarcoma; experiment: Recovery from developed Yoshida s.c. sarcoma, treated on 6th day (Table 4); assay type: in vivo, CFY rats; conditions: 50 mg./kg. 1× i.p. on 6th day; animals recovered/treated
Experimental: as §2, §3, §5

[8] = test system: Ehrlich ascites carcinoma; experiment: Way of activity: thymidine index (3H-thymidine incorporation into DNS) in Ehrlich ascites carcinoma; assay type: in vivo, Mice; conditions: in 24 hours; i.p. on 6th day, equitoxic doses
Experimental: as §1
**thymidine index=^3 H-thymidine incorporation into the DNS of the tumour cell.

[9] = test system: Ehrlich acites carcinoma; experiment: Antitumour activity, Ehrlich ascites carcinoma (Table 2); assay type: in vivo, CFLP mice; conditions: 1.5 mg./kg. 4× i.p., from the 2nd day; animals recovered/treated
Experimental: as §2, §3, §4, §5

[10] = test system: NK/Ly ascites lymphoma; experiment: Antitumour activity, NK/Ly ascites lymphoma (Table 2); assay type: in vivo, CFLP mice; conditions: from the 2nd day; for Recovery (90 day survival): animals recovered/treated
Experimental: as §2, §3, §4, §5

[11] = test system: BDF1 mice; experiment: Acute toxicity (LD50), 21 days observation; assay type: in vivo; conditions: BDF1 mice of both sexes
Experimental: Species: BDF1 mice of both sexes
Treatment: a volume of 0.2 ml./10 g. body weight of a suspension of the tested compounds in water containing 2% of Tween-80 was used.
Number of animals: 10/dose
Observation time: 21 days

[12] = test system: Rausher leukemia; experiment: Antitumour activity, Rauscher leukemia, spleen weight (Table 3); assay type: in vivo, CFLP mice; conditions: 10.0 mg./kg. 6× i.p., from the 2nd day
Experimental: as §2, §3, §6
A similar method was applied in the case of the Rauscher leukemia too, but the weight of the spleen was taken, instead of the tumour, in the formula mentioned above.

[13] = test system: P-388 leukemia; experiment: Antitumour activity, P-388 leukemia (Table 2); assay type: in vivo, BDF1 mice; conditions: 12.0 mg./kg. 4× i.p., from the 2nd day; animals recovered/treated
Experimental: as §2, §3, §4, §5

1,4-bis[3-(2-chloroethyl)-N-nitrosoureido]-1,4-dideoxy-D,L-threitol [Compound 1]
Decrease of the mitosis-index [1]: 90%
Increase in life span ([2]; 7.5 mg./kg. 1× i.p.): 45%
Recovery (90 day survival) ([2]; 7.5 mg./kg. 1× i.p.): 2/8
Increase in life span ([2]; 12.5 mg./kg. 1× p.o.): 23%
Recovery (90 day survival) ([2]; 12.5 mg./kg. 1× p.o.): 1/8
Increase in life span ([2]; 12.5 mg./kg. 3× p.o.): 30%
Recovery (90 day survival) ([2]; 12.5 mg./kg. 3× p.o.): 3/8
Increase in life span ([2]; 15.0 mg./kg. 1× i.p.): 29%
Recovery (90 day survival) ([2]; 15.0 mg./kg. 1× i.p.): 3/8
Increase in life span ([2]; 25.0 mg./kg. 1× p.o.): 111%
Recovery (90 day survival) ([2]; 25.0 mg./kg. 1× p.o.): 3/8
Recovery (90 day survival) ([2]; 25.0 mg./kg. 3× p.o.): 6/8
Increase in life span ([2]; 30.0 mg./kg. 1× i.p.): 230%
Recovery (90 day survival) ([2]; 30.0 mg./kg. 1× i.p.): 7/8
Increase in life span ([2]; 50.0 mg./kg. 1× p.o.): 84%
Recovery (90 day survival) ([2]; 50.0 mg./kg. 1× p.o.): 4/8
Inhibition (tumour weight) ([3]; 3.0 mg./kg. 2× i.p.): 43%
Inhibition (tumour weight) ([3]; 10.0 mg./kg. 4× p.o.): 42%
Inhibition (tumour weight) ([3]; 12.0 mg./kg. 4× i.p.): 80%
Inhibition (tumour weight) ([4]; 12 mg./kg. 4× i.p.): 99%
Inhibition (tumour weight) ([4]; 24 mg./kg. 1× i.p.): 76%
Inhibition (tumour weight) ([5]; 10.0 mg./kg. 5× p.o.): 96%
Inhibition (tumour weight) ([5]; 24.0 mg./kg. 1× i.p.): 81%
Duration of inhibition of the increase of the total cell number [6]: 35 days
Recovery (90 day survival) [7]: 5/7
Decrease of the thymidine index [8]: 90%
Recovery (90 day survival) [9]: 6/8
Recovery (90 day survival) ([10]; 1.5 mg./kg. "433" i.p.): 6/8
Recovery (90 day survival) ([10]; 3.0 mg./kg. 4× i.p.): 8/8
Increase in life span ([10]; 30.0 mg./kg. 4× p.o.): 89%
Recovery (90 day survival) ([10]; 30.0 mg./kg. 4× p.o.): 1/7
LD50 value i.p. ([11]; i.p.): 80 mg/kg
LD50 value p.o. ([11]; p.o.): 135 mg/kg
Inhibition (spleen weight) [12]: 78%
Recovery (90 day survival) [13]: 7/8

From patent US4237273A, “Bis(nitrosoureido)-polyol derivatives” (Richter Gedeon Vegyeszeti Gyar RT, priority 1977, dated 1980)
